In PubChem BioAssay (NCI):
“And” between values parts separate entries of the source, which are not always exact repeats. Equal entries are not always repeated.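 96-well plates; 48 h exposure; 5 concentrations. Endpoints by linear interpolation between flanking doses. Not reached: highest tested concentration assigned. GI50: concentration for 50% inhibition of growth. At the TGI there is no net growth.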 Where a SMILES comes first, the peptide text is derived from it. [ ]: non-standard residue; d: D form. The star is where a group is joined. ξ: configuration not given here. NMeF = CN[C@@H](Cc1ccccc1)C(=O)O; NMeN = CN[C@@H](CC(N)=O)C(=O)O; NMeV = CN[C@H](C(=O)O)C(C)C; ξNMeV = CNC(C(=O)O)C(C)C; Boc = CC(C)(C)OC(=O)*; ξNMeA = CNC(C)C(=O)O; ξV = CC(C)C(N)C(=O)O

Key:
Test in all cases: NCI tumour cell line growth inhibition, 48 h
[1] = system: HCT-116 colon
[2] = system: NCI-H522 lung
[3] = system: NCI-H460 lung
[4] = system: SK-OV-3 ovarian
[5] = system: SK-MEL-2 melanoma
[6] = system: HCT-15 colon
[7] = system: OVCAR-3 ovarian
[8] = system: A498 renal
[9] = system: SK-MEL-28 melanoma
[10] = system: KM12 colon
[11] = system: LOX IMVI melanoma
[12] = system: A549 NSCLC
[13] = system: RXF 393 renal
[14] = system: KM20L2 colon
[15] = system: U251 CNS
[16] = system: SNB-75 CNS
[17] = system: SF-268 CNS
[18] = system: EKVX NSCLC
[19] = system: MDA-MB-435
[20] = system: DMS 273 small cell lung
[21] = system: DMS 114 small cell lung
[22] = system: LXFL 529 NSCLC
[23] = system: K-562 leukemia
[24] = system: IGROV1 ovarian
[25] = system: HCC-2998 colon
[26] = system: MDA-MB-231 breast
[27] = system: COLO 205 colon
[28] = system: UACC-257 melanoma
[29] = system: UO-31 renal
[30] = system: T-47D breast
[31] = system: M14 melanoma
[32] = system: UACC-62 melanoma
[33] = system: SNB-78 CNS
[34] = system: SN12C renal
[35] = system: CCRF-CEM leukemia
[36] = system: DLD-1 colon
[37] = system: MOLT-4 leukemia
[38] = system: MCF7 breast
[39] = system: HS 578T breast
[40] = system: HL-60(TB) leukemia
[41] = system: DU-145 prostate
[42] = system: PC-3 prostate
[43] = system: 786-0 renal
[44] = system: HOP-92 NSCLC
[45] = system: HOP-62 NSCLC
[46] = system: SW-620 colon
[47] = system: HT29 colon
[48] = system: NCI-H226 lung
[49] = system: ACHN renal
[50] = system: RPMI-8226 leukemia
[51] = system: OVCAR-8 ovarian
[52] = system: MDA-N
[53] = system: NCI/ADR-RES ovarian
[54] = system: MALME-3M melanoma
[55] = system: OVCAR-4 ovarian
[56] = system: TK-10 renal
[57] = system: SF-539 CNS
[58] = system: XF 498 CNS
[59] = system: SF-295 CNS
[60] = system: SR leukemia
[61] = system: SNB-19 CNS
[62] = system: BT-549 breast
[63] = system: OVCAR-5 ovarian
[64] = system: CAKI-1 renal
[65] = system: NCI-H23 lung
[66] = system: SK-MEL-5 melanoma
[67] = system: M19-MEL melanoma

COC(=O)C(C)N(C)C(=O)[C@H](CC(N)=O)N(C)C(=O)[C@@H]1CCCN1C(=O)[C@H](C(C)C)N(C)C(=O)C(C(C)C)N(C)C(=O)[C@H](Cc1ccccc1)N(C)C(=O)C(NC(=O)OC(C)(C)C)C(C)C (stereo not given in full) (Boc-[ξV][NMeF][ξNMeV][NMeV]P[NMeN][ξNMeA]-OMe)
TGI [1]: 50 µM and 31.1 µM | TGI [2]: 50 µM and 29.8 µM | GI50 [3]: 17.4 µM | TGI [3]: 50 µM and 39 µM | GI50 [4]: 29.4 µM | TGI [4]: 50 µM and > 100 µM | TGI [5]: 20.1 µM and 22.9 µM | GI50 [6]: 29.8 µM | TGI [6]: 50 µM and > 100 µM | GI50 [7]: 17.1 µM | TGI [7]: 50 µM and 31.2 µM | GI50 [8]: 21.9 µM | TGI [8]: 50 µM and 67 µM | TGI [9]: 50 µM and 30.5 µM | GI50 [10]: 18.8 µM | TGI [10]: 22.8 µM and 37.3 µM | GI50 [11]: 3.1 µM | TGI [11]: 20.7 µM and 19.2 µM | GI50 [12]: > 100 µM | TGI [12]: > 100 µM | TGI [13]: 29.8 µM | TGI [14]: > 100 µM | GI50 [15]: 16.9 µM | TGI [15]: 23 µM and 30.5 µM | GI50 [16]: 17.2 µM | TGI [16]: 21.1 µM and 31.9 µM | GI50 [17]: 15.6 µM | TGI [17]: 50 µM and 29 µM | GI50 [18]: 23.7 µM | TGI [18]: > 50 µM and 61.5 µM | TGI [19]: 50 µM | TGI [20]: 28.9 µM | TGI [21]: 17.1 µM | TGI [22]: 10.3 µM | GI50 [23]: 21 µM | TGI [23]: 50 µM and 57.2 µM | GI50 [24]: 16.2 µM | TGI [24]: 50 µM and 29.8 µM | GI50 [25]: 16.7 µM | TGI [25]: 50 µM and 31.1 µM | TGI [26]: 50 µM | GI50 [27]: 17.5 µM | TGI [27]: 50 µM and 35.6 µM | GI50 [28]: 19.4 µM | TGI [28]: 50 µM and 39.4 µM | GI50 [29]: 17.3 µM | TGI [29]: 50 µM and 31.1 µM | TGI [30]: 50 µM | TGI [31]: 50 µM and 30.6 µM | GI50 [32]: 17.5 µM | TGI [32]: 20.3 µM and 36.8 µM | TGI [33]: 40.4 µM | GI50 [34]: 17.4 µM | TGI [34]: 50 µM and 33.5 µM | GI50 [35]: 10.8 µM | TGI [35]: 50 µM and 33.1 µM | TGI [36]: 31.8 µM | GI50 [37]: 11.1 µM | TGI [37]: 21.5 µM and 33.6 µM | TGI [38]: 50 µM | TGI [39]: 23.6 µM | GI50 [40]: 4.54 µM | TGI [40]: 44.7 µM and 17.4 µM | TGI [41]: 50 µM | TGI [42]: 50 µM | GI50 [43]: 29.7 µM | TGI [43]: 50 µM and > 100 µM | GI50 [44]: 14.6 µM | TGI [44]: 50 µM and 27.8 µM | GI50 [45]: 19.1 µM | TGI [45]: 31.5 µM and 38.8 µM | GI50 [46]: 13 µM | TGI [46]: 50 µM and 25.7 µM | GI50 [47]: 23.4 µM | TGI [47]: 50 µM and 57.7 µM | GI50 [48]: 20.8 µM | TGI [48]: 40.2 µM and 36.6 µM | GI50 [49]: > 100 µM | TGI [49]: > 100 µM | TGI [50]: 41.9 µM | TGI [51]: 31.3 µM | TGI [52]: 50 µM | TGI [53]: > 50 µM | TGI [54]: 32.5 µM | GI50 [55]: 31.1 µM | TGI [55]: > 50 µM and 87.5 µM | GI50 [56]: 18.4 µM | TGI [56]: 50 µM and 51.8 µM | GI50 [57]: 18.1 µM | TGI [57]: 50 µM and 32.4 µM | TGI [58]: 28.9 µM | GI50 [59]: 32.8 µM | TGI [59]: 26.3 µM and > 100 µM | GI50 [60]: 0.005 µM | TGI [60]: 50 µM and 21.6 µM | GI50 [61]: 16.9 µM | TGI [61]: 50 µM and 30.8 µM | TGI [62]: 32.3 µM | GI50 [63]: 97.2 µM | TGI [63]: > 100 µM | GI50 [64]: 26.9 µM | TGI [64]: > 50 µM and 55.3 µM | GI50 [65]: 20.4 µM | TGI [65]: 50 µM and 40.4 µM | GI50 [66]: 15.2 µM | TGI [66]: 50 µM and 28.5 µM

O=C1c2ccccc2C(=O)c2c1ccc(O)c2O
TGI [1]: > 100 µM | TGI [2]: > 100 µM | TGI [3]: > 100 µM | TGI [5]: > 100 µM | TGI [6]: > 100 µM | TGI [7]: > 100 µM | TGI [8]: > 100 µM | TGI [9]: > 100 µM | TGI [10]: > 100 µM | TGI [11]: > 100 µM | TGI [13]: 88.7 µM | TGI [15]: > 100 µM | TGI [16]: 69.2 µM | TGI [17]: > 100 µM | TGI [18]: > 100 µM | TGI [20]: > 100 µM | TGI [67]: > 100 µM | TGI [22]: > 100 µM | TGI [23]: > 100 µM | TGI [24]: > 100 µM | TGI [25]: > 100 µM | TGI [27]: > 100 µM | TGI [28]: > 100 µM | TGI [29]: > 100 µM | TGI [31]: > 100 µM | TGI [32]: 55.3 µM | TGI [34]: > 100 µM | TGI [35]: > 100 µM | TGI [36]: > 100 µM | TGI [37]: > 100 µM | TGI [43]: > 100 µM | TGI [44]: > 100 µM | TGI [45]: > 100 µM | TGI [46]: > 100 µM | TGI [47]: > 100 µM | TGI [48]: > 100 µM | TGI [49]: > 100 µM | TGI [50]: > 100 µM | TGI [51]: > 100 µM | TGI [55]: > 100 µM | TGI [56]: > 100 µM | TGI [57]: > 100 µM | TGI [58]: > 100 µM | TGI [59]: > 100 µM | TGI [60]: > 100 µM | TGI [61]: > 100 µM | TGI [63]: > 100 µM | TGI [64]: > 100 µM | TGI [65]: > 100 µM
